Assay results as given in US8796329B2, “Method for controlling angiogenesis in animals” (Ziopharm Oncology, Inc., priority 2006, dated 2014).
Several values for one entry are separate records, joined by “and”; a condition that tells them apart may be missing. Equal entries are not always repeated.

Key:
HUVEC (Endothelia) [1] = test: 3H-thymidine incorporation assay for HUVEC; assay type: cell-based; conditions: Homo sapiens
Method: HUVEC cultures were seeded and treated in 96-well plates, as described above for the CellTiter-Glo viability assay. After treatment of HUVEC cultures with the compound of formula (II), 96-well plates were pulsed with 1 μCi of ^3H-thymidine for the final 6-18 hours of culture and then harvested with a semiautomatic cell harvester onto filters that bind the DNA. Samples were counted in a PerkinElmer Microbeta scintillation and luminescence counter (Trilux) to determine the amount of 3H-TdR uptake. The data was then transferred and processed using an Excel spreadsheet program to provide for the mean and standard deviation for % of control values. The results were analyzed by calculating IC50 values and including a table showing % of control values for each compound tested. There were several test drug concentrations with three treatment time points (2, 4, and 6 days) and 6 replicates for each test concentration as shown in FIG. 2. For the 6-day assay experiment, the culture media with different test concentration treatments was exchanged at Day 4.

[2] = tested on: blood vessel density in Matrigel plugs; test: Matrigel Plug in vivo assay, oral dosing; conditions: 350 mg/kg/dose oral, once daily for 9 days, plugs Day 14, male CD2F1 mice
Method: Male CD2F1 mice were used for the Matrigel Plug experiment. There were two groups of mice, five mice in each group, with one group serving as a control and the second group was treated once daily for 9 days with a compound of formula II at 350 mg/kg/dose (0.2 mL/10 g of body weight) by oral administration in a saline solution. The control group received oral saline as a vehicle. Each mouse received two Matrigel plugs. On Day 0, 500 μL Matrigel at 4° C. was subcutaneously injected to each side of the mouse, wherein the injection area was shaved. The injection was done rapidly with an appropriate size needle (21 G-25 G) to ensure the entire contents of the syringe were delivered in one plug. The injected Matrigel rapidly formed a single solid gel plug. On Day 14, the mice were euthanized and the mouse skin was pulled back to expose the plug. The plugs were dissected out and fixed in 10% formalin for histological analysis. Sections of 5 μm from paraffin-embedded plugs were stained with haematoxylin and eosin (H&E) stain. Blood vessel density in a cross sectional area of each Matrigel plug was analyzed using Image Pro-Plus software. Each of the plugs was fixed in 10% formalin.

P388 murine leukemia = test: Response of ip implanted P388 murine leukemia to ip and po administration; assay type: in vivo, mice; conditions: for treatment-related deaths / increase in lifespan (ILS) / median day of death: qld×9; for increase in lifespan (ILS): p=0.000 vs vehicle; for median day of death: vehicle control 11.5
Description: Mice were implanted ip with one million cells of P388 murine leukemia using a 23-gauge needle. The P388 tumor line was maintained as an in vivo passage. The day of tumor implantation was designated as day 0, with treatment beginning on day 1 following tumor implantation. A sufficient number of mice were implanted so that animals with body weights in a range as narrow as possible were selected for the trial.
The compound of formula (II) was formulated in saline on the first day of treatment (day 1) at a concentration of 40 mg/mL. This solution was then diluted to the lower dosing concentrations of 30, 20, and 5 mg/mL. Enough of the compound of formula (II) was prepared on day 1 for the entire dosing period. Each dosing solution was then aliquoted for daily treatments, frozen at −20° C., and thawed on each day of injection. All injections were administered on the basis of exact body weight with the injection volume being 0.2 mL/10 g body weight.
The study consisted of four treatment groups of eight mice per group and one vehicle-treated control group with ten mice, for a total of 42 mice on the first day of treatment. The study design called for the compound of formula (II) to be administered once a day for nine consecutive days (qld×9) by oral gavage at dosages of 800, 600, and 400 mg/kg/dose and by ip injection at a dosage of 100 mg/kg/dose. The control group (group 1) was treated with the vehicle (saline), which was administered po on a qld×9 injection schedule.
The study was terminated 17 days after tumor implantation. Any animal that became moribund was euthanized prior to study termination.
Number of nonspecific deaths, median days of death, and the increase in lifespan based on the median day of death and expressed as a percentage (% ILS).
The individual animals' survival time was used as the endpoint in a life tables analysis (stratified Kaplan-Meier estimation followed by the Mantel-Haenszel log-rank test) in order to statistically compare the survival data between groups.

HUVEC (Endothelia) [3] = test: CellTiter-Glo Luminescent Cell Viability Assay, HUVEC; assay type: cell-based; conditions: Homo sapiens
Method: (§1) CellTiter-Glo Luminescent Cell Viability Assay (Promega Corporation) is based on quantification of ATP levels in cell cultures. The amount of ATP produced in cell culture reflects the number of viable cells. […] HUVECs and LL47 cells were seeded in 96-well plates in their growth medium. After 24 hours, various doses of the compound of formula (II) were added to both cultures side by side, having six replicates for each dose. At different treatment time points, CellTiter-Glo reagent were added to the cultures following the manufacturer's instructions; luminescence signals were measured with an EnVision™ Multilabel Reader (Perkin Elmer, Wellesley, Mass.) The blank control groups were given saline vehicle only, and positive control groups were given 10 μM T-araC (provided by Southern). Data was analyzed for the mean and standard deviation for each treatment condition. IC50 values of the compound of formula (II) against HUVEC and LL47 cell cultures were determined based on the dose response curves as shown in FIG. 1. There were several test drug concentrations with three treatment time points (2, 4, and 6 days). For the 6-day assay experiment, the culture media with different test concentration treatments was exchanged at Day 4.

[4] = tested on: blood vessel density in Matrigel plugs (VEGF, FGFb, heparin as angiogenic stimuli); test: Matrigel Plug in vivo assay, intravenous dosing; design: species or system C57BL/6 mice
Method: Female C57BL/6 mice around 10-weeks old and Matrigel Matrix High Concentration (from Becton Dickinson) mixed with 50 ng/mL VEGF, 50 ng/mL FGFb, and heparin 3 ng/mL as angiogenic stimuli were used for the Matrigel Plug experiments. There were two groups of mice, five mice in each group, with one group serving as a control and the second group expected to be treated once daily for 9 days with a compound of formula II at 100 mg/kg/dose (0.2 mL/10 g of body weight) by intravenous (i.v.) injection. The control group received oral saline as a vehicle. Each mouse received two Matrigel plugs. On Day 0, 500 μL Matrigel at 4° C. was subcutaneously injected to each side of the mouse, wherein the injection area was shaved. To increase the contact area of injected Matrigel into subcutaneous tissues and form a round shape plug, a wide subcutaneous pocket was formed by swaying the needle point right and left after a routine subcutaneous insertion. The injection was done rapidly with an appropriate size needle (21 G-25 G) to ensure the entire contents of the syringe were delivered in one plug. The injected Matrigel rapidly formed a single solid gel plug. […] Plugs from each group were collected at Day 12. The mice were euthanized and the mouse skin was pulled back to expose the plug. The plugs were dissected out and fixed in 10% formalin for histological analysis. Sections of 5 μm from paraffin-embedded plugs were stained with H&E. Blood vessel density in a cross sectional area of each Matrigel plug was analyzed using Image Pro-Plus software. For each group of mice, at least six Matrigel plugs were quantitatively analyzed to assess any statistical significant difference of microvessel density between groups. The quantitation of microblood vessel density using a compound of formula (II) is shown below.

LL47 (Fibroblast) = test: CellTiter-Glo Luminescent Cell Viability Assay, LL47; assay type: cell-based; conditions: Homo sapiens
Method: as §1

For `C[As](C)SCC(NC(=O)CCC(N)C(=O)O)C(=O)NCC(=O)O` (stereo not drawn) [Compound of Formula (II)], the IC50 (HUVEC (Endothelia) [1]; Day 2) was < 100 µM, the IC50 (HUVEC (Endothelia) [1]; Day 4) was < 1000 µM and the IC50 (HUVEC (Endothelia) [1]; Day 6) was < 500 µM. For the same compound, the “reduction of angiogenesis compared to the control” value [2] was “effective in reducing angiogenesis”, the “increase in lifespan, in words” value (P388 murine leukemia; 100 mg/kg/dose ip) was “tolerated and resulted in a minimal increase in lifespan” and the treatment-related deaths (P388 murine leukemia; 100 mg/kg/dose ip) was “tolerated without treatment-related deaths”. For the same compound, the “increase in lifespan (ILS)” value (P388 murine leukemia; 100 mg/kg/dose ip) was 26%, the “median day of death” value (P388 murine leukemia; 100 mg/kg/dose ip) was 14.5 days and the “increase in lifespan, in words” value (P388 murine leukemia; 400 mg/kg/dose po) was “tolerated and elicited a minimal increase in lifespan”. The treatment-related deaths (P388 murine leukemia; 400 mg/kg/dose po) was “No treatment-related deaths”, the “increase in lifespan (ILS)” value (P388 murine leukemia; 400 mg/kg/dose po) was 30% and the “median day of death” value (P388 murine leukemia; 400 mg/kg/dose po) was 15.0 days. The IC50 (HUVEC (Endothelia) [3]; 48 h, Day 2) was < 1500 µM, the IC50 (HUVEC (Endothelia) [3]; 96 h, Day 4) was < 1000 µM and the IC50 (HUVEC (Endothelia) [3]; 144 h, Day 6) was < 500 µM. The “toxicity to C57BL/6 mice” value ([4]; 100 mg/kg/dose i.v. once daily, doses 6 and 8 skipped) was “higher than expected toxicity”, the “microblood vessel density, individual animal” value ([4]; 100 mg/kg/dose i.v., 7 doses, plugs collected Day 12, female C57BL/6 mice, animals #1-#4) was 3 and 2 (2×) and 0 and the “microblood vessel density, Average” value ([4]; 100 mg/kg/dose i.v., 7 doses, plugs collected Day 12, female C57BL/6 mice, control average 48.8) was 1.75. For the same compound, the IC50 (LL47 (Fibroblast); 48 h, Day 2) was < 5000 µM, the IC50 (LL47 (Fibroblast); 96 h, Day 4) was < 2000 µM and the IC50 (LL47 (Fibroblast); 144 h, Day 6) was < 1500 µM.
